Test results published in patent US8802818B2, “Prostaglandin-F2 alpha receptor modulators and uses thereof” (priority 2011, dated 2014).
Square brackets hold non-standard residues; d marks the D form. Peptide text beside a SMILES is read from it. * marks the point of attachment. 3Pal = N[C@@H](Cc1cccnc1)C(=O)O; β3hF = N[C@H](CC(=O)O)Cc1ccccc1; PhAc = O=C(Cc1ccccc1)*; azaGly = NNC(=O)O

Experiments:
SW480 cells = test: Migration/invasion of SW480 cells in collagen-coated Boyden chambers; type: cell-based, human; details: 1 μM, 30 min pre-treatment, 16 h; for PGF2α-induced migration of SW480 cells: then 1 μM PGF2α
Protocol: SW480 cells were re-seeded into collagen-coated Boyden chambers, pretreated with PDC (1 μM, 30 min.), and stimulated or not with 1 μM PGF2α and PGE2 (use to show specificity of analogs for FP). Migration/invasion was assessed after 16 h.
Migration/invasion was assessed after 16 h.

PGF2α receptor (FP) [1] = target: T1, PGF2α receptor (FP) (Homo sapiens, UniProt P43088); test: Cell ruffling in FP expressing HEK293 cells; details: 30 min; for inhibition of FP-induced (PGF2α-mediated) cell ruffling: pretreated 1 μM, then PGF2α 1 μM
T1 sequence (P43088 whole entry, species assumed): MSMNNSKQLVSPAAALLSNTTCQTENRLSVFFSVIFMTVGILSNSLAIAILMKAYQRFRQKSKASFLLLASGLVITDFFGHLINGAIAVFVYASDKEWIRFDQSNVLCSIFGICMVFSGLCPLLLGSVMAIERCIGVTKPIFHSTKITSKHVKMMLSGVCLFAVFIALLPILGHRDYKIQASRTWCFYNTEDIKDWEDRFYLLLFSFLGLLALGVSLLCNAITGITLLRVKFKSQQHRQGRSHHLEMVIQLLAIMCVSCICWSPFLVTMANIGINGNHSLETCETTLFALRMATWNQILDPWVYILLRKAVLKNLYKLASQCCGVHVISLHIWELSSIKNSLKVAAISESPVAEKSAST
From the text: Nine fields (50-75 cells/field) per cover slip were quantified to assess circular cellular ruffling.

PGF2α receptor (FP) [2] = target: T1, PGF2α receptor (FP); test: ERK1/2 MAP kinase activation in HEK293 cells stably transfected with HA-FP (western blot); type: cell-based; parameters: expressed in transfected cells; host or cells: HEK293; details: 1 μM azapeptide 30 min pre-treatment, then PGF2α 0.1 μM or 1 μM for 5 min
Protocol: PGF2αreceptor (FP) expressing cells were serum-starved and pre-treated with 1 μM azapeptides (6-9) for 30 min and then stimulated with 0.1 μM (A) or 1 μM (B) PGF2α for 5 min as described.^24 Blots were quantified by densitometry and plotted compared to the non-stimulated (NS) condition. Results are representative of five independent experiments;
PGF2α was obtained from Cayman. Mouse monoclonal anti-p-ERK and rabbit polyclonal anti-total ERK antibodies were from Cell Signaling. HEK293 cells stably transfected with HA-FP (HA-FP cells)^24 were employed to measure activation of MAP kinase by PGF2α using conventional western blot methods. Briefly, HA-FP cells in 6-well plates were starved for 30 min and pre-treated with 1 μM of an azapeptide (6-9) for 30 min, and then challenged with PGF2α (0.1 μM or 1 μM) for 5 min. Cells were lysed in Laemmli buffer 2× (250 mM Tris-HCl pH 6.8, 2% SDS, 10% Glycerol, 0.01% Bromophenol blue). Lysates were electrophoresed on a 10% SDS-PAGE gels, transferred to nitrocellulose membranes, and probed using mouse anti-p-ERK1/2 and rabbit anti-total-ERK1/2 antibodies. Blots were quantified by densitometry and statistical tests were performed as described.^24

[3] = system: PGF2α-induced myometrial contractions; test: Ex vivo myometrial contraction assay; parameters: species or system mice; details: mouse myometrial strips; compound given 15 min before PGF2α
Protocol: FIGS. 7A and 7B show the effects of PDC113.824 and azapeptides 5-9 on mean tension in myometrial preparations induced by PGF2α. At the beginning of each experiment, mean tension of spontaneous myometrial contraction was considered as the basal response. […] Values as mean±SEM of 3-5 experiments for each compound; p<0.05 compared to all values without asterisks.
Ex vivo myometrial contraction assays were performed as previously described^24. Briefly, uteri from mice were obtained from animals immediately after delivery.

[4] = system: SW480, HT29, Caco-2 and HTC116 cells; test: Effect of PGF2α and PGE2 on colorectal cancer cell migration (collagen-coated Boyden chamber); type: cell-based, human; details: for migration of colorectal adenocarcinoma cell lines on stimulation: mediator 1 μM, 16 h, SW480, HT29, Caco-2, HTC116
Protocol: SW480 (p53 mut, K-Ras mut, APC mut), HT29 (p53 mut, K-Ras WT, APC mut), Caco-2 (p53 mut, K-Ras WT, APC mut), and HTC116 ([…], K-Ras mut, APC mut) cells were re-seeded into Boyden chambers coated with collagen, stimulated or not with FBS (10%), PGF2α (1 μM) or PGE2 (1 μM). Migration/invation was assessed after 16 h. Results are presented as mean±SEM of 3 independent experiments. *p<0.05, **p<0.01, ***p<0.001 compared to non-stimulated (ns) conditions;

Row | Structure (SMILES) | PGF2α-mediated ERK1/2 signaling relative to cells stimulated with PGF2α alone (PGF2α receptor (FP) [2]) | PGF2α-induced migration of SW480 cells (SW480 cells) | inhibition of FP-induced (PGF2α-mediated) cell ruffling (PGF2α receptor (FP) [1]) | other results
1 | O=C(O)C[C@H](Cc1ccccc1)NC(=O)[C@H](Cc1cccnc1)NC(=O)[C@@H]1CCCN1C(=O)NNC(=O)Cc1ccccc1 [Compound 5] (PhAc-[azaGly]P[3Pal][β3hF]-OH) | – | significantly impaired the ability of SW480 cells to migrate | as effective as PDC113.824 in inhibiting FP-induced cell ruffling | –
2 | O=C(O)C[C@H](Cc1ccccc1)NC(=O)[C@H](Cc1cccnc1)NC(=O)[C@@H]1CCCN1C(=O)N(Cc1ccccc1)NC(=O)Cc1ccccc1 [Compound 7] | significantly potentiated | significantly impaired the ability of SW480 cells to migrate | as effective as PDC113.824 in inhibiting FP-induced cell ruffling | reduction of PGF2α-induced myometrial contractions (mean tension) [3]: active
3 | O=C(O)C[C@H](Cc1ccccc1)NC(=O)[C@H](Cc1cccnc1)NC(=O)[C@@H]1CC[C@@H]2CC[C@H](NC(=O)Cc3ccccc3)C(=O)N21 [PDC113.824, Phenylacetyl-(3S,6S,9S)-I^2aa-(2S)-(3-pyridyl)alaninyl-(3S)-β-homophenylalanine, reference compound] | – | significantly blocked PGF2α-induced migration | inhibiting FP-induced cell ruffling | PGE2-induced migration of SW480 cells (SW480 cells; then 1 μM PGE2): without affecting migration induced by PGE2; migration of SW480 cells in the absence of PGF2α and PGE2 (SW480 cells): did not affect the migration of SW480 cells; reduction of PGF2α-induced myometrial contractions (mean tension) [3]: active
4 | CCCCC[C@H](O)/C=C/[C@H]1[C@H](O)CC(=O)[C@@H]1C/C=C\CCCC(=O)O [PGE2] | – | – | – | migration of colorectal adenocarcinoma cell lines on stimulation [4]: enhanced migration of the four (4) cell lines examined
5 | CCCCC[C@H](O)/C=C/[C@@H]1[C@@H](C/C=C\CCCC(=O)O)[C@@H](O)C[C@H]1O [PGF2α] | – | – | – | potency of PGF2α on migration compared with PGE2 ([4]; SW480 and HT29 cells): as potent as PGE2; migration of colorectal adenocarcinoma cell lines on stimulation [4]: enhanced migration of the four (4) cell lines examined; membrane ruffle formation, share of FP cells (PGF2α receptor (FP) [1]; PGF2α 1 μM): 65.7 ± 1.6%

Now from value to compound, other results behind:

Row | PGF2α-mediated ERK1/2 signaling relative to cells stimulated with PGF2α alone (PGF2α receptor (FP) [2]) | Structure (SMILES) | PGF2α-induced migration of SW480 cells (SW480 cells) | inhibition of FP-induced (PGF2α-mediated) cell ruffling (PGF2α receptor (FP) [1]) | other results
6 | significantly potentiated | C#CCN(NC(=O)Cc1ccccc1)C(=O)N1CCC[C@H]1C(=O)N[C@@H](Cc1cccnc1)C(=O)N[C@H](CC(=O)O)Cc1ccccc1 [Compound 6, Phenylacetyl-aza-propargylglycinyl-(2S)-prolyl-(2S)-3-(pyridyl)-alaninyl-(3S)-β-homophenylalanine] | had an effect on cell migration but was not as effective as the others | slightly reduced PGF2α-mediated cell ruffling | –
7 | hindered | C=CCN(NC(=O)Cc1ccccc1)C(=O)N1CCC[C@H]1C(=O)N[C@@H](Cc1cccnc1)C(=O)N[C@H](CC(=O)O)Cc1ccccc1 [Compound 8] | significantly impaired the ability of SW480 cells to migrate | as effective as PDC113.824 in inhibiting FP-induced cell ruffling | –
8 | hindered | CN(NC(=O)Cc1ccccc1)C(=O)N1CCC[C@H]1C(=O)N[C@@H](Cc1cccnc1)C(=O)N[C@H](CC(=O)O)Cc1ccccc1 [Compound 9] | relatively lower effect | slightly reduced PGF2α-mediated cell ruffling | –
